Target: Bromodomain-containing protein 4 (Homo sapiens, UniProt O60885)
Assay: A mixture comprising 100 nM GST-BRD4 (BD1+BD2) and 100 nM biotinylated acetyl-histone H4 (Lys5,8,12,16) peptide was prepared in assay buffer (50 mM HEPES pH 7.4; 25 mM NaCl; 0.05% Tween 20; 0.1% bovine serum albumin (BSA); 10 mM dithiothreitol (DTT)). After adding 6 μl of the mixture to the diluent, 6 μl of the pre-mixed AlphaLISA Glutathione Acceptor Beads and AlphaScreen Streptavidin Donor Beads (PerkinElmer, 10 μg/ml in assay buffer, respectively) was added thereto. The samples were incubated in the dark at room temperature for 30 minutes (shaking at 300 rpm). Then, the signals were measured with PerkinElmer Envision HTS Multilabel Reader using an alpha screen protocol of PerkinElmer. Each plate contained the negative control in which biotinylated acetyl-histone H4 peptide and GST-BRD4 (BD1+BD2) were replaced by assay buffer. In the case of using the software GraphPad Prism for calculation, the negative control point was input as a low standard value. The positive control (probe molecule l-BET762 containing protein/peptide mixture) proceeded to pipetting.

IC50 | Compound
0.061 µM | Cc1nnc2c(NCCCCNC(=O)C(C)(C)C)nc3ccc(F)cc3n12
0.091 µM | COCCOc1ccc2c(c1)nc(NCCCCNC(C)=O)c1nnc(C)n12
0.056 µM | Cc1ccc2nc(NCCCCNC(=O)C(C)(C)C)c3nnc(C)n3c2c1
0.058 µM | Cc1nnc2c(NCCCCNC(=O)c3ccccc3)nc3ccccc3n12
0.056 µM | Cc1nnc2c(NCCCCNC(=O)c3ccccc3)nc3ccc(NC(=O)C(C)C)cc3n12
0.077 µM | Cc1nnc2c(NCCCCNC(=O)C(C)C)nc3ccc(F)cc3n12
0.091 µM | Cc1nnc2c(NCCCCNC(=O)OC(C)C)nc3c(C(F)(F)F)cc(F)cc3n12

From ChEMBL document CHEMBL5728514, “[1,2,4]Triazolo[4,3-a]quinoxaline derivative, method for preparing same, and pharmaceutical composition for preventing or treating BET protein-related diseases, containing same as active ingredient” (2021)
